Experimental data published in article PMC7698842, “Lanostane Triterpenoid Metabolites from a Penares sp. Marine Sponge Protect Neuro-2a Cells against Paraquat Neurotoxicity” (Molecules, 2020).

How the values were obtained:
[1] = DPPH radical scavenging assay (cell-free); conditions: 30 min, MeOH
Protocol: The 2,2-diphenyl-1-picryl-hydrazyl-hydrate (DPPH) radical scavenging activity was tested as described previously. The compounds were dissolved in MeOH, and the solutions (120 µL) were dispensed into wells of a 96-well microplate. The DPPH (Sigma-Aldrich, Steinheim, Germany) was dissolved in MeOH at a concentration of 7.5 × 10^−3 M and the solution (30 µL) was added to each well. The concentrations of tested compounds in the mixtures were 10 and 100 µM. Ascorbic acid was used as a positive control. The mixtures were shaken and left for 30 min. The absorbance of the resulting solutions was measured at λ = 520 nm with a MultiscanFC plate reader (Thermo Scientific, Waltham, MA, USA). The concentration scavenging 50% of the DPPH radical (EC50) was calculated for each compound.

[2] = tested on: PQ-treated Neuro-2a cells; assay: Neurite outgrowth estimation in PQ-treated Neuro-2a cells; format: cell-based, mouse; conditions: compound 10 µM 1 h, then PQ 500 µM 24 h
Protocol: Neurite outgrowth was studied as described by Li et al.. Neuro-2a cells were seeded in 6-well plates (1.6 × 10^5 cells/well) in DMEM medium containing 10% fetal bovine serum (Biolot, St. Peterburg, Russia) and 1% penicillin/streptomycin (Invitrogen, Carlsbad, CA, USA). The next day, this growth media was changed with serum-free DMEM media containing 1% penicillin/streptomycin, and cells were treated with studied compounds at a concentration of 10 µM for 1 h. After that, PQ (500 µM) was added and cells were incubated during 24 h. Cells incubated without PQ and compounds and with PQ alone were used as positive and negative controls, respectively.
For each well, approximately 10 images were acquired randomly by scanning the wells from left to right and top to bottom using the AxioImager A1 microscope (CarlZeiss, Oberkochen, Germany). A total of ten random fields (near 350 cells in each) for each experimental group were scored for neurite outgrowth. The number of neurite-bearing cells and lengths of the individual neurites for each cell were measured using the AxioVision 4.7.1 software (CarlZeiss, Oberkochen, Germany). Length was defined as the straight-line distance from the tip of the neurite to the junction between the cell body and neurite base. In the case of branched neurites, the length of the longest branch was measured from the tip of the neurite to the cell body. In each experimental group, the average length of neurites was calculated, as well as the average number of neurites per one cell.

[3] = tested on: histamine release induced by anti-IgE; conditions: cited from earlier work

CC(C)=CCC[C@@H](C)[C@H]1CC[C@@]2(C(=O)O)C3=C(CC[C@]12C)[C@@]1(C)CCC(=O)C(C)(C)[C@@H]1CC3 [Compound 4, penasterone]
EC50 [1]: > 100 µM | increase in the average number of neurites per cell [2]: 27% | increase of neurites-bearing cell amount compared to PQ-treated control [2]: 134% | inhibition of histamine release induced by anti-IgE [3]: inhibitors of histamine release
